In patent publication US10842800B2, “Concomitant administration of glucocorticoid receptor modulators and CYP3A inhibitors” (Corcept Therapeutics, Inc., priority 2017, dated 2020):
“Also recorded” adds a separate entry of the source. Where two headings read alike, the source gives them in different places. One block for each compound: values may come before it.

Assays:
Type in all cases: in vivo, human
[1] = Safety assessment: adverse events, laboratory tests, ECG (Example 1); conditions: for TEAEs considered by the investigator to be related to the drug: Example 1
Protocol: (§1) Subjects in both cohorts returned to the study center on Day 15 for safety monitoring, and completion of the Termination Visit procedures, followed by discharge from the study. Safety was assessed by spontaneously reported adverse events, physical examinations, and routine clinical laboratory tests. To the extent possible, any adverse events deemed study drug-related and that were ongoing at the time of discharge from the study were followed-up to resolution or until a determination is made that the unresolved event was stable.

[2] = Ketoconazole PK after a 400 mg single dose on Day 8 of mifepristone 300 or 600 mg OD (Example 2)
Excerpt: (§2) Subjects were discharged on Day 11.
(§3) Subjects were discharged on Day 11. Subjects in both cohorts returned to study center on Day 13 for safety monitoring, collection of the 120-hour PK draw, and completion of the Termination Visit procedures, followed by discharge from the study. To the extent possible, any adverse events deemed study drug-related and that were ongoing at the time of discharge from the study were followed-up to resolution or until a determination was made that the unresolved event was stable.
(§4) DURATION OF TREATMENT: Up to a total of 28 days, including up to 2 weeks screening, dosing on Days 1-8, safety observation, and PK sample collection through Day 13.
(§5) Descriptive statistics count, mean, median, standard deviation, minimum, maximum, and % coefficient of variation) were provided. Ketoconazole concentrations were listed and summarized. GM means of Cmax and total AUC were compared for the single dose in this study to the combined data of reported 400 mg single doses of ketoconazole of healthy subjects from the literature.

[3] = Effect of co-administration with mifepristone on ketoconazole PK (Example 3); conditions: Test: Day 17, 600 mg mifepristone OD + 200 mg ketoconazole BID; Reference: Day -1, 200 mg ketoconazole single dose
Protocol: (§6) A single dose of ketoconazole was administered on Day −1.
(§7) The study was a two period study design.

[4] = Cross-study comparison of exposure to mifepristone and metabolites with historic 1200 mg OD mifepristone study (Example 3); conditions: for Ratio % Test/Ref, AUC0-24 (geometric mean ratio) / Ratio % Test/Ref, Cmax (geometric mean ratio): Test: present study Day 17, 600 mg mifepristone OD + 200 mg ketoconazole BID, Reference: historic study Day 7, 1200 mg mifepristone OD alone, after 34% fat meal
[5] = Effect of oral ketoconazole 400 mg OD or 200 mg BID on plasma pharmacokinetics of a 300 mg single dose of mifepristone, fasted (Example 1); conditions: for AUC: male, human, plasma, oral, read-out: AUCtot (mean)
Excerpt: This study was an open-label study in healthy male subjects.
(§8) Healthy male volunteers between the ages of 18 to 45 years of age with a body mass index (BMI) ranging between 19 and 32 kg/m2 and a weight of at least 60 kg (132 lbs) were enrolled. Subjects had no clinically significant abnormal findings on the physical examination, ECG, blood pressure, heart rate, medical history, or clinical laboratory results during screening. The QTc interval at screening was less than 450 msec.
In cohort 1, six subjects received ketoconazole 400 mg OD for 14 days.
Subjects remained in the clinic on Days 2 and 3 to receive 400 mg OD oral ketoconazole fasted, and for safety evaluation and collection of blood pharmacokinetic (PK) samples. Subjects were discharged from the clinic on Day 4 following administration of 400 mg OD oral ketoconazole fasted, and returned to the clinic the mornings of Days 5 through 13 to receive 400 mg OD oral ketoconazole fasted.
In cohort 2, six subjects received ketoconazole 200 mg BID for 14 days. […] All 12 subjects completed the study. Cohort 2 subjects participated in a Screening visit to assess eligibility and a check-in Day (Day −1) during which eligibility was re-confirmed. […] The evening of Day 1, subjects received 200 mg oral ketoconazole. Subjects remained in the clinic on Days 2, 3 and 4 to receive 200 mg BID oral ketoconazole, and for safety evaluation and collection of blood pharmacokinetic (PK) samples. Subjects were discharged from the clinic on Day 4 following evening administration of 200 mg oral ketoconazole, and returned to the clinic the morning and evening of Days 5 through 13 to receive 200 mg BID oral ketoconazole. Morning doses of ketoconazole on Days 0-13 were administered in the fasted state.
as §1
Descriptive statistics (count, mean, median, standard deviation, minimum, maximum, and % coefficient of variation) were provided. […] Comparisons with previous study data were made.

[6] = Liver function of a patient with excess cortisol on ketoconazole plus reduced mifepristone dose (Examples 4-7); conditions: concomitant ketoconazole
[7] = Effect of a 400 mg single dose of ketoconazole on PK of an 8-day regimen of 300 mg or 600 mg OD mifepristone, moderate fat breakfast (Example 2)
Protocol: This was an open-label study in healthy male subjects. […] The 400 mg single dose of ketoconazole was given to all subjects on day 8.
METHODOLOGY: Twelve subjects were enrolled, six in Cohort 1 and 6 in Cohort 2.
as §2, §3
as §8, with “DIAGNOSIS AND MAIN […] FOR INCLUSION: Healthy” for “Healthy”
as §4, §5

[8] = Safety assessment: adverse events, physical examinations, laboratory tests (Example 2)
Protocol: Safety was assessed by spontaneously reported adverse events, physical examinations, and routine clinical laboratory tests. Adverse event data were tabulated. Physical findings and laboratory test results were listed by subject.

[9] = Safety: adverse events, laboratory tests, vital signs, ECG (Example 3); conditions: mifepristone 600 mg OD Days 1-17, ketoconazole 200 mg BID Days 13-17
[10] = Effect of ketoconazole 200 mg BID on PK of mifepristone 600 mg OD and metabolites, with food (Example 3); conditions: for concentrations on Day 17 compared with Day 12: Day 17: mifepristone 600 mg daily + ketoconazole 200 mg twice daily, Day 12: mifepristone alone; for Ratio % Test/Reference, AUC0-24 (geometric mean ratio) / Ratio % Test/Reference, Cmax (geometric mean ratio): Test: Day 17, 600 mg mifepristone OD + 200 mg ketoconazole BID, Reference: Day 12, 600 mg mifepristone OD; for effect of co-administration with ketoconazole on exposure: mifepristone 600 mg OD + ketoconazole 200 mg BID
Protocol: as §6, §7

[11] = single 400 mg ketoconazole dose on Day 8
[12] = MIFE 300 mg single dose fasted, C1: Keto 400 mg OD
[13] = Cohort 2 (600 mg OD), between Day 7 and Day 8
[14] = 900 mg mifepristone daily with inhibition of CYP3A (extrapolated from 600 mg data)

SMILES: CC#C[C@]1(O)CC[C@H]2[C@@H]3CCC4=CC(=O)CCC4=C3[C@@H](c3ccc(N(C)C)cc3)C[C@@]21C [Mifepristone, 11β-(4-dimethylaminophenyl)-17β-hydroxy-17α-(1-propynyl)-estra-4,9-dien-3-one]
exposures as share of those following the highest labeled dose of mifepristone (1200 mg daily) ([4]; 600 mg mifepristone OD + 200 mg ketoconazole BID): approximately 85%
Ratio % Test/Ref, AUC0-24 (geometric mean ratio) [4]: 87.27%
Ratio % Test/Ref, Cmax (geometric mean ratio) [4]: 84.64%
mifepristone exposure less than that of 1200 mg mifepristone in the absence of ketoconazole ([4]; mifepristone 600 mg co-administered with ketoconazole): 13-15%
subjects with at least 1 treatment-emergent adverse event (TEAE) ([1]; 12 subjects, mifepristone 300 mg single dose with ketoconazole for 14 days): 25%
TEAEs considered by the investigator to be related to the drug [1]: No TEAE
serious adverse effect (SAE) ([1]; mifepristone 300 mg single dose with ketoconazole for 14 days): No subject experienced a serious adverse effect (SAE); also recorded: No subject experienced an SAE
geometric mean ratio (GMR) for AUCinf ([5]; Cohort 2 vs Cohort 1): 1.05
geometric mean ratio (GMR) for Cmax ([5]; Cohort 2 vs Cohort 1): 1.15
Mean Ratio Cmax (C2/C1) ([5]; Keto 200 mg BID vs 400 mg OD, MIFE 300 mg single dose): 1.15 ng/mL
T1/2 (mean) [5, 12]: 37.1 h
AUC [5, 12]: 117 µg·h/mL
AUC ([5]; MIFE 300 mg single dose fasted, C2: Keto 200 mg BID): 131 µg·h/mL
liver function of the patient ([6]; mifepristone reduced from 600 mg to 300 mg daily): not significantly compromised
liver function of the patient ([6]; mifepristone reduced from 900 mg to 600 mg daily): not significantly compromised
liver function of the patient ([6]; mifepristone reduced from 1200 mg to 900 mg daily): not significantly compromised
liver function of the patient ([6]; mifepristone reduced from 1500 mg to 1200 mg daily): not significantly compromised
increase in AUC0-24 [7, 13]: 28%
increase in Cmax [7, 13]: 39%
AUC0-24 at 600 mg OD greater than at 300 mg OD ([7]; Day 7 without ketoconazole): 48%
Cmax at 600 mg OD greater than at 300 mg OD ([7]; Day 7 without ketoconazole): 42%
AUC0-24 at 600 mg OD greater than at 300 mg OD ([7]; Day 8 with 400 mg ketoconazole): 52%
Cmax at 600 mg OD greater than at 300 mg OD ([7]; Day 8 with 400 mg ketoconazole): 65%
half-life at 600 mg OD greater than at 300 mg OD ([7]; Day 8 with 400 mg ketoconazole): 13%
AUCt (AUC0-24 hours, mean) ([7]; MIFE 300 mg/d C1 Day 7, no ketoconazole): 37734 ng·h/mL
Cmax (mean) ([7]; MIFE 300 mg/d C1 Day 8, 400 mg Keto single dose): 3240 ng/mL
TEAEs considered possibly or probably related to mifepristone administration ([8]; four subjects in Cohort 2 (600 mg)): dizziness, nausea, vomiting, dry mouth, and rash
SAE ([8]; mifepristone 300 or 600 mg OD 8 days, ketoconazole 400 mg Day 8): No subject experienced an SAE
subjects with at least 1 TEAE ([8]; twelve subjects, mifepristone 300 or 600 mg OD 8 days, ketoconazole 400 mg Day 8): 50%
deaths or SAEs [9]: No deaths or SAEs
severe TEAEs [9]: No severe TEAEs
corresponding increase in mifepristone AUC [10, 14]: 38.01%
corresponding increase in mifepristone Cmax [10, 14]: 27.59%
concentrations on Day 17 compared with Day 12 [10]: higher
Ratio % Test/Reference, AUC0-24 (geometric mean ratio) [10]: 138.01%
Ratio % Test/Reference, Cmax (geometric mean ratio) [10]: 127.59%
effect of co-administration with ketoconazole on exposure [10]: increased

SMILES: CC#C[C@]1(O)CC[C@H]2[C@@H]3CCC4=CC(=O)CCC4=C3[C@@H](c3ccc(NC)cc3)C[C@@]21C [RU 42633, (8S,11R,13S,14S,17S)-17-hydroxy-13-methyl-11-[4-(methylamino)phenyl]-17-prop-1-ynyl-1,2,6,7,8,11,12,14,15,16-decahydrocyclopenta[a]phenanthren-3-one]
Ratio % Test/Ref, AUC0-24 (geometric mean ratio) [4]: 91.34%
Ratio % Test/Ref, Cmax (geometric mean ratio) [4]: 96.31%
concentrations on Day 17 compared with Day 12 [10]: similar
Ratio % Test/Reference, AUC0-24 (geometric mean ratio) [10]: 102.33%
Ratio % Test/Reference, Cmax (geometric mean ratio) [10]: 105.73%
effect of co-administration with ketoconazole on exposure [10]: not affected by ketoconazole; also recorded: little change in exposure

SMILES: CC#C[C@]1(O)CC[C@H]2[C@@H]3CCC4=CC(=O)CCC4=C3[C@@H](c3ccc(N)cc3)C[C@@]21C [RU 42848, (8S,11R,13S,14S,17S)-11-(4-aminophenyl)-17-hydroxy-13-methyl-17-prop-1-ynyl-1,2,6,7,8,11,12,14,15,16-decahydrocyclopenta[a]phenanthren-3-one]
Ratio % Test/Ref, AUC0-24 (geometric mean ratio) [4]: 81.43%
Ratio % Test/Ref, Cmax (geometric mean ratio) [4]: 82.45%
concentrations on Day 17 compared with Day 12 [10]: similar
Ratio % Test/Reference, AUC0-24 (geometric mean ratio) [10]: 94.88%
Ratio % Test/Reference, Cmax (geometric mean ratio) [10]: 95.48%
effect of co-administration with ketoconazole on exposure [10]: not affected by ketoconazole; also recorded: little change in exposure

Further lines, with some results ahead:

ketoconazole half-life on either mifepristone regimen ([2]; single 400 mg dose on Day 8, mifepristone 300 vs 600 mg OD): not appreciably different
ketoconazole AUCinf higher on 600 mg OD relative to 300 mg OD mifepristone regimen [2, 11]: 36%
ketoconazole Cmax higher on 600 mg OD relative to 300 mg OD mifepristone regimen [2, 11]: 37%
Ratio % Test/Reference, AUC (geometric mean ratio) [3]: 365.36%
Ratio % Test/Reference, Cmax (geometric mean ratio) [3]: 252.71%
SMILES: CC(=O)N1CCN(c2ccc(OCC3COC(Cn4ccnc4)(c4ccc(Cl)cc4Cl)O3)cc2)CC1 (stereo not drawn) [Ketoconazole, 1-acetyl-4-[4-[[2-(2,4-dichlorophenyl)-2-[(1H-imidazol-1-yl)-methyl]-1,3-dioxolan-4-yl]methoxy]phenyl]piperazine]
TEAEs considered by the investigator to be related to the drug [1]: One TEAE of insomnia

Ratio % Test/Ref, AUC0-24 (geometric mean ratio) [4]: 118.18%
Ratio % Test/Ref, Cmax (geometric mean ratio) [4]: 116.55%
mean metabolite exposure compared with mifepristone ([7]; mifepristone 300 or 600 mg OD): lower
concentrations on Day 17 compared with Day 12 [10]: higher
Ratio % Test/Reference, AUC0-24 (geometric mean ratio) [10]: 166.86%
Ratio % Test/Reference, Cmax (geometric mean ratio) [10]: 169.13%
mean increase in exposure ([10]; co-administration with ketoconazole 200 mg BID, mifepristone 600 mg OD): approximately 70%
effect of co-administration with ketoconazole on exposure [10]: increased by ketoconazole
SMILES: CN(C)c1ccc([C@H]2C[C@@]3(C)[C@@H](CC[C@@]3(O)C#CCO)[C@@H]3CCC4=CC(=O)CCC4=C32)cc1 [RU 42698, (8S,11R,13S,14S,17S)-11-[4-(dimethylamino)phenyl]-17-hydroxy-17-(3-hydroxyprop-1-ynyl)-13-methyl-1,2,6,7,8,11,12,14,15,16-decahydrocyclopenta[a]phenanthren-3-one]
